{"source": "patent US7988972B2", "about": "“Immunoreactive peptides from Epstein-Barr virus” (Ortho-Clinical Diagnostics, Inc., priority 1993, dated 2011)", "key": {"[1]": {"tested_on": "anti-EA-R and anti-EA-D sera", "experiment": "ELISA, anti-EA-R and anti-EA-D sera against p17.1 and p50.10", "assay_type": "binding, human", "settings": "individual sera, donors Anti-EA-negative (VCA-negative); values >0.2 significant", "experimental": "(§1) ELISA. The ELISA for measuring specific antibodies to p17, p50 or to the synthetic peptides was performed as previously described in detail (Luka et al., J. Immunol. Methods, 67:145-156, 1984). Aliquots of different antigen concentrations were diluted in 0.5M Na2CO3 buffer, pH 9.5, added to wells in polystyrene microtiter plates (Linbro) and the plates incubated overnight at 4° C. Following this incubation period, the plates were washed 5× with Tris-HCl, pH 7.4, containing 0.05% Tween 20, 50 mM NaCl and 100 mg per liter albumin (Sigma) and dried for 20 minutes at room temperature. The plates were screened with different anti-EA-R or EA-D antibody positive human sera and the monoclonal antibody to p17 or p50 to identify the optimal concentration of antigen to be used in the serological studies. Alkaline-phosphatase-labelled goat anti-human IgG (Sigma) or goat anti-mouse IgG (Sigma) was used as the indicator system.\nFor the testing of human sera for antibodies to native p17, p50 or to the synthetic peptides, sera were diluted 1:10 in ELISA buffer, added in 0.1 ml volumes to wells coated with optimal concentrations of antigen and the plates were incubated for 60 minutes at room temperature. […] The reaction was allowed to proceed for 30 minutes at 37° C. and then the plates were screened directly with a microplate reader, TITERTEK MULTISKAN MC (Flow), at 420 nm. […]"}, "[2]": {"tested_on": "anti-EA antibodies in human sera", "experiment": "ELISA, serological reactivity of human sera with p17 synthetic peptides", "assay_type": "binding", "settings": "for No. Positive/No. Tested / No. Positive/No. Tested (%): sera 1:10", "experimental": "as §1\nFor the testing of human sera for antibodies to native p17, p50 or to the synthetic peptides, sera were diluted 1:10 in ELISA buffer, added in 0.1 ml volumes to wells coated with optimal concentrations of antigen and the plates were incubated for 60 minutes at room temperature. After 4 washes with ELISA buffer, 100 μl of alkaline phosphatase-labelled goat anti-human IgG in ELISA buffer were added to each well and the plates were incubated at room temperature for 1 hour. Following four more washes in buffer, the enzyme reaction was performed by dissolving 1 mg per ml of Sigma alkaline phosphatase substrate in 1M diethanolamine buffer, pH 10.4, containing 1 mM MgCl2 and 0.1 mM ZnCl2, and 100 μl of the mixture was then added to each well. The reaction was allowed to proceed for 30 minutes at 37° C. and then the plates were screened directly with a microplate reader, TITERTEK MULTISKAN MC (Flow), at 420 nm. Readings above 0.1 which was 2× the background noted with antibody-negative sera were considered positive reactions.\nStudies were designed to determine the serological reactivity with the p17 synthetic epitopes. For this purpose, 87 anti-EA antibody-positive sera (titer>160) were tested in the ELISA against optimal pre-determined concentrations (2 μg per well) of the p17 synthetic peptides. The sera were obtained from 28 patients with African Burkift's lymphoma (ABL) collected during the Ghanian Burkitt Tumor Project, and from 28 North American patients with intermediate large cell, or high grade non-Hodgkin's lymphoma (NANHL). The donors included both HIV-positive and HIV-negative individuals. In addition, sera from 31 North American nasopharyngeal carcinoma (NANPC) patients were examined in this study (Pearson, G. R., et al., Cancer, 51:260-268, 1983). To validate the EA specificity of the serological reactions, the results with these sera were compared with results with 23 VCA and EA antibody-negative sera and 30 VCA-antibody-positive, EA-antibody negative sera. In contrast to the T-cell proliferation results, all three synthetic peptides reacted with the EA antibody-positive sera to varying degrees with p17.1 again being the dominant epitope. Approximately 60% of the anti-EA-positive sera reacted with p17.1, 48% with p17.2 and 23% with p17.3.\nSeventy-one percent of the sera from ABL patients and 93% of the sera from patients with NANHL reacted with p17.1 as opposed to 23% of the sera from North American patients with NPC."}, "[3]": {"settings": "serum donors: Lymphoma (total), EA titers >160"}, "[4]": {"settings": "serum donors: Nasopharyngeal carcinoma (North American), EA titers >160"}, "[5]": {"settings": "serum donors: Non-Hodgkin's lymphoma (North American), EA titers >160"}, "[6]": {"settings": "serum donors: Normal (VCA + EA-)"}}, "note": "Where “and” joins values, the source holds several entries; their conditions need not be identical. Equal entries are not always repeated."}
{"sequence": "ETFTETWNRFITHTE [p17.1, synthetic peptide from 17 Kd early antigen (EA-R) region of EBV]", "values": [{"measurement": "ELISA (420 nm) OD readings", "setting": "[1]", "value": "0.024 and 0.071 and 0.027"}, {"measurement": "share of anti-EA-positive sera that reacted", "setting": "[2]; 87 anti-EA antibody-positive sera (titer>160), 2 μg peptide per well", "value": "Approximately 60%"}, {"measurement": "No. Positive/No. Tested", "setting": "[2]; serum donors: Burkitt's lymphoma (African), EA titers >160", "value": "20/28"}, {"measurement": "No. Positive/No. Tested", "setting": "[2]; [3]", "value": "46/56"}, {"measurement": "No. Positive/No. Tested (%)", "setting": "[2]; [3]", "value": 82, "unit": "%"}, {"measurement": "No. Positive/No. Tested", "setting": "[2]; [4]", "value": "7/31"}, {"measurement": "No. Positive/No. Tested (%)", "setting": "[2]; [4]", "value": 23, "unit": "%"}, {"measurement": "No. Positive/No. Tested", "setting": "[2]; [5]", "value": "26/28"}, {"measurement": "No. Positive/No. Tested (%)", "setting": "[2]; [5]", "value": 93, "unit": "%"}, {"measurement": "No. Positive/No. Tested", "setting": "[2]; [6]", "value": "0/30"}, {"measurement": "No. Positive/No. Tested (%)", "setting": "[2]; [6]", "value": 0, "unit": "%"}, {"measurement": "No. Positive/No. Tested", "setting": "[2]; serum donors: Normal (VCA − EA-)", "value": "0/23"}]}
